Laboratory results reported in patent publication US20030203035A1, “Allergen neutralization compositions” (The Procter & Gamble Company, priority 2000, published 2003).

Target: T1, Der f 2 mite extract (Dermatophagoides farinae, UniProt Q00855)
T1 construct: Add 1.0 ml of 20 ug/ml Der f 2 mite extract; from tissue; host or cells: house dust mite extract (Dermatophagoides farinae)
T1 sequence (Q00855 18-146): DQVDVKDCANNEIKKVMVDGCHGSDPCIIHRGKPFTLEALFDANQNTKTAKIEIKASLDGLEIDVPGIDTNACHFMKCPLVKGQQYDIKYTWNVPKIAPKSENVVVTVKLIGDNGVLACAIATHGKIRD
Test: Efficacy Determination Protocol, ELISA (allergen neutralization)
Format: biochemical
Conditions: for Average Absorbance / % of Allergen Remaining: 1.4 wt.% of ion; for Average Absorbance: 490 nm, water control 1.7; for % of Allergen Remaining: Der f 2, normalized to water control = 100
Excerpt: The efficacy of an allergen neutralization composition can be determined by the ELISA protocol. Enzyme-linked immunosorbent assay (“ELISA”) is a highly sensitive assay technique for detection and measurement of antigens or antibodies in solution. The assay uses enzyme-linked antigens or antibodies to amplify an antigen-antibody reaction. A single enzyme-linked antibody-antigen complex can convert orders of magnitude more of colorless substrate molecules into detectable colored products, thus considerably amplifying the original antigen-antibody reaction. The antigen or antibody is adsorbed onto the surface of the well of a microtiter plate, and all the relevant reactions take place in solution inside the well. While the following protocol will be easily understood by those skilled in the art, for a more detailed explanation please see Konishi, E. and Uehara, K. Enzyme-linked immunosorbent assay for quantifying antigens of Dermatophagoides farinae and D. pteronyssinus (Acari: Pyroglyphidae) in house dust samples, 1990, Entomologist Society of America, 27 (6), p. 993-998.
It is understood that those skilled in the art of allergen suppression will be aware of numerous variations to the protocol given below. For example, the monoclonal antibody may be substituted with a similar antibody, for example Der f 1 for Der f 2. But a standard, in this case water, is used and the results for the samples that contain active ingredients are normalized against the standard and the results reported as percentage of allergen remaining That is, the amount of allergen that is not neutralized. Thus, the allergen neutralization results for similar, but not identical antibodies should be substantially the same when normalized to the standard. Both Der f 1 and Der f 2 were tested for various compositions, but Der f 2 was chosen as the standard for the present Efficacy Determination Protocol because it is more difficult to neutralize. To be clear, the values for the % of allergen remaining that are reported in Table I will generally improve (that is, decrease) when tested with Der f 1.
At least two samples are prepared. One sample contains only distilled water and samples of one or more allergen neutralization compositions containing the allergen neutralization active, for example ZnCl2, tannin, etc. The samples are all treated according to the same protocol, and the distilled water sample is used as the control. All samples are prepared as follows:
1) Add 1.0 ml of 20 ug/ml Der f 2 mite extract to 0.8 ml of the sample composition (either the allergen neutralization composition or water for the control). Mix well and let sit for 1 hour at room temp.
2) Add 2.2 ml of 20% skim milk in Phosphate Buffer Saline (PBS).
3) Mix well by vortexing and centrifuge at 12000 rpm (approx. 17000×g) for 1 hour.
4) The supernatant is used for the ELISA protocol.
Each well of a microplate is coated at 4° C. overnight with 100 μl of Der f 2 monoclonal antibody (clone 15E11, from Asahi Breweries., AB-A-4) at a protein concentration of […] of Phosphate Buffer Saline (PBS), pH 7.4 containing 0.1% sodium azide. The monoclonal antibody is discarded and the plate is incubated with 100 μL of 1% BSA PBS containing 0.1% sodium azide for 1 hour. The plate is washed 3 times with PBS containing 0.05% Tween 20 (PBS-T). 100 μl of an allergen sample is added and incubated for 1 hour at 37° C.
Use 3× dilutions of a reference Dermatophagoides farinae crude extract (commercially available from LSL) to make the standard curve. The curve is made using 6.9 nanogram-mite extract equivalent/ml to 5 microgram-mite extract equivalent/ml. Wash plate with PBS-T for 3 times. 100 μl of Horse Radish Peroxidase (HRP) conjugated anti Der f 2 antibody (clone 13A4) is added at 40 ng/ml and the plate is incubated at 37° C. for 1 hour. The plate is then washed with PBS-T 3 times and then washed with water 3 times. […]

[1] = weight % of metal ion in the composition, inferred from Table III

[Cl][Fe][Cl] [FeCl2]
Average Absorbance (pH 2.9): 0.84
% of Allergen Remaining (pH 2.9): 44%

O=S(=O)([O-])[O-].[Fe+2] [FeSO4]
Average Absorbance (pH 3.5): 1.13
% of Allergen Remaining (pH 3.5): 54%

[Cl][Sn][Cl] [SnCl2]
Average Absorbance (pH 2.1): 0.54
% of Allergen Remaining (pH 2.1): 32%
Average Absorbance (pH 3.2): 0.25
% of Allergen Remaining (pH 3.2): 18%
effective amount if 80% removal is necessary [1]: about 1.4%
effective amount to remove 50% of allergens [1]: less than 1.4%

O=S(=O)([O-])[O-].[Sn+2] [SnSO4]
Average Absorbance (pH 2.0): 0.28
% of Allergen Remaining (pH 2.0): 22%

[Cl-].[Cl-].[Zn+2] [ZnCl2, Zinc chloride]
Average Absorbance (pH 3.6): 0.70
% of Allergen Remaining (pH 3.6): 34%
